Target: T1, human recombinant P2X7 receptor (Homo sapiens, UniProt Q99572)
T1 construct: expressed in transfected cells
T1 sequence (Q99572 1-595): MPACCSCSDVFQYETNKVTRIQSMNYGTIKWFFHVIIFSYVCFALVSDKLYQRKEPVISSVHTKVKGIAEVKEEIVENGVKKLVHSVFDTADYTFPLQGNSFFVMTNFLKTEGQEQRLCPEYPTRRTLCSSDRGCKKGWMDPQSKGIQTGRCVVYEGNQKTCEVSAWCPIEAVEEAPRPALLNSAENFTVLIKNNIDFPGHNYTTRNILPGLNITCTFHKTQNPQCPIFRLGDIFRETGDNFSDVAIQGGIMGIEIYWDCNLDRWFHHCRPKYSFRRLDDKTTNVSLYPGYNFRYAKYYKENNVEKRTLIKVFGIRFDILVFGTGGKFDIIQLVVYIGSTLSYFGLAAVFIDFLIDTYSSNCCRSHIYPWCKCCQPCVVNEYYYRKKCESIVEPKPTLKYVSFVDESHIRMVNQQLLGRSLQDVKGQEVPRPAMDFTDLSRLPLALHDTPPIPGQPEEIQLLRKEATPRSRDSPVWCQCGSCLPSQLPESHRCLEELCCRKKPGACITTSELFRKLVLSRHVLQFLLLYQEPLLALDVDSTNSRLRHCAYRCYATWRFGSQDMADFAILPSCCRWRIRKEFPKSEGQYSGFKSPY
Assay: YO-PRO assay (YO-PRO-1 uptake) in HEK cells stably expressing P2X7
Assay type: cell-based
Conditions: HEK-293 cells expressing human recombinant P2X7 receptor; ATP 250 μM, 90 minutes; YO-PRO-1 fluorescence (FLIPR tetra); read-out: IC50 (antagonistic activity with respect to the P2X7 receptor)
Description: Cell line generation was performed in general according to established molecular cloning protocols. Specifically, RNA was extracted from human whole blood using the Qiagen RNeasy kit (Qiagen, CH) according to the manufacturer's instructions. Subsequently cDNA was made (Superscript II, Invitrogen AG, CH) and the human P2X7 gene (genbank ref. BC011913) was amplified with the following primers: [NT] and [NT] The amplified sequence was subsequently ligated into a pcDNA3.1 (+) NotI, NheI digested plasmid. […] Following a 24 h exposure to DNA, cells were trypsinized and re-seeded at low density in the presence of 250 μg Geneticin. Geneticin resistant cells were then selected during two consecutive rounds of cloning by serial limiting dilution with visual inspection. Individual clones were screened for P2X7 expression by applying ATP and recording the resultant uptake of YO-[…]. Specific cell clones were chosen based on RNA and protein expression. HEK cells stably expressing P2X7 were used to screen drugs using the YO-[…] assay. Cells were grown to confluency in adherent culture at 37° C. in a humidified 5% CO2 incubator (split 1/5 every 3-4 days with DMEM, 10% FCS, 1% Penicillin/Streptomycin, 250 μg/ml Geneticin). Adherent cells were detached by incubation with Trypsine (1 ml per 165 cm^2 dish) for 2 minutes, then washed off with 10 ml PBS (without Mg^2+ and Ca^2+), and resuspended in DMEM, 10% FCS, 1% Penicillin/Streptomycin, no Geneticin. 10'000 cells per well (48 hours before the assay) or 25'000 cells per well (Vi-cell XR (Beckman Coulter) (24 hours before the assay) in 50 μl full medium were seeded on 384-well black-wall, clear bottom plates, that were coated before with 10 μl per well Poly-L-Lysine, incubated for 30-60 minutes at 37° C. and washed once with PBS. Medium was removed from cells and 50 μl of assay buffer containing 0.5 μM YO-[…] was added into the wells. Solutions of antagonist compounds were prepared by serial dilutions of a 10 mM DMSO solution of the antagonist into PBS using a BioMek (Beckman Coulter). Each concentration was performed in duplicate. […] During this time period, four time points were taken. Each time point comprised the average of several measurements made within a few seconds. […] The FLIPR tetra was equipped with Molecular Devices Screen Works system control software to define and run experimental protocols. […] For IC50 measurements the maximum intensity is plotted against the concentration of compound to determine IC50 values.

Row | Compound | IC50
1 | CN(c1ccc(Cl)c(C(=O)NCC2(O)CCCC2)c1)c1ccnc(=O)[nH]1 [Example 50, 2-Chloro-N-(1-hydroxy-cyclopentylmethyl)-5-[methyl-(2-oxo-2,3-dihydro-pyrimidin-4-yl)-amino]-benzamide] | 258 nM
2 | COC1(CNC(=O)c2cc(N(C)c3ccnc(=O)[nH]3)ccc2Cl)CCCCC1 [Example 52, 2-Chloro-N-(1-methoxy-cyclohexylmethyl)-5-[methyl-(2-oxo-2,3-dihydro-pyrimidin-4-yl)-amino]-benzamide] | 170 nM
3 | CN(c1ccc(Cl)c(C(=O)NCC2(C(N)=O)CCCCC2)c1)c1ccnc(=O)[nH]1 [Example 54, N-(1-Carbamoyl-cyclohexylmethyl)-2-chloro-5-[methyl-(2-oxo-2,3-dihydro-pyrimidin-4-yl)-amino]-benzamide] | 231 nM
4 | CN(c1ccc(Cl)c(C(=O)NCC2(O)CCC(F)(F)CC2)c1)c1ccnc(=O)[nH]1 [Example 58, 2-Chloro-N-(4,4-difluoro-1-hydroxy-cyclohexylmethyl)-5-[methyl-(2-oxo-2,3-dihydro-pyrimidin-4-yl)-amino]-benzamide] | 51 nM
5 | CSc1nccc(Nc2ccc(Cl)c(C(=O)N[C@H](C)C3CCCCC3)c2)n1 [Example 59, 2-Chloro-N—((R)-1-cyclohexyl-ethyl)-5-(2-methylsulfanyl-pyrimidin-4-ylamino)-benzamide] | 1810 nM
6 | CSc1nccc(Nc2ccc(Cl)c(C(=O)N[C@H](CO)C3CCCCC3)c2)n1 [Example 60, 2-Chloro-N—((S)-1-cyclohexyl-2-hydroxy-ethyl)-5-(2-methylsulfanyl-pyrimidin-4-ylamino)-benzamide] | 1030 nM
7 | CSc1nccc(Nc2ccc(Cl)c(C(=O)NCC3(O)CCCCCC3)c2)n1 [Example 61, 2-Chloro-N-(1-hydroxy-cycloheptylmethyl)-5-(2-methylsulfanyl-pyrimidin-4-ylamino)-benzamide] | 681 nM
8 | CSc1cc(N(C)c2ccc(Cl)c(C(=O)NCC3(O)CCCCC3)c2)ncn1 [Example 65, 2-Chloro-N-(1-hydroxy-cyclohexylmethyl)-5-[methyl-(6-methylsulfanyl-pyrimidin-4-yl)-amino]-benzamide] | 205 nM
9 | CN(c1ccc(Cl)c(C(=O)NCC2(O)CCCCC2)c1)c1cc(S(C)(=O)=O)ncn1 [Example 66, 2-Chloro-N-(1-hydroxy-cyclohexylmethyl)-5-[(6-methanesulfonyl-pyrimidin-4-yl)-methyl-amino]-benzamide] | 158 nM
10 | CN(c1ccc(Cl)c(C(=O)NCC2(O)CCCCC2)c1)c1cc(=O)[nH]cn1 [Example 68, 2-Chloro-N-(1-hydroxy-cyclohexylmethyl)-5-[methyl-(6-oxo-1,6-dihydro-pyrimidin-4-yl)-amino]-benzamide] | 288 nM
11 | O=C(NCC1(O)CCCCC1)c1cc(Nc2ncccn2)ccc1Cl [Example 69, 2-Chloro-N-(1-hydroxy-cyclohexylmethyl)-5-(pyrimidin-2-ylamino)-benzamide] | 326 nM
12 | CN(c1ccc(Cl)c(C(=O)NCC2(O)CCCCC2)c1)c1ncccn1 [Example 70, 2-Chloro-N-(1-hydroxy-cyclohexylmethyl)-5-(methyl-pyrimidin-2-yl-amino)-benzamide] | 373 nM
13 | COCCN(c1ccc(Cl)c(C(=O)NCC2(O)CCCCC2)c1)c1ncccn1 [Example 71, 2-Chloro-N-(1-hydroxy-cyclohexylmethyl)-5-[(2-methoxy-ethyl)-pyrimidin-2-yl-amino]-benzamide] | 2000 nM
14 | CSc1ccnc(Nc2ccc(Cl)c(C(=O)NCC3(O)CCCCC3)c2)n1 [Example 72, 2-Chloro-N-(1-hydroxy-cyclohexylmethyl)-5-(4-methylsulfanyl-pyrimidin-2-ylamino)-benzamide] | 1460 nM

The remaining lines, values ahead:

Row | IC50 | Compound
15 | 1120 nM | CN(c1ccc(Cl)c(C(=O)NCC2(O)CCCC2)c1)c1ccnc(Cl)n1 [Example 49, 2-Chloro-5-[(2-chloro-pyrimidin-4-yl)-methyl-amino]-N-(1-hydroxy-cyclopentylmethyl)-benzamide]
16 | 460 nM | COC1(CNC(=O)c2cc(N(C)c3ccnc(Cl)n3)ccc2Cl)CCCCC1 [Example 51, 2-Chloro-5-[(2-chloro-pyrimidin-4-yl)-methyl-amino]-N-(1-methoxy-cyclohexylmethyl)-benzamide]
17 | 576 nM | CN(c1ccc(Cl)c(C(=O)NCC2(C(N)=O)CCCCC2)c1)c1ccnc(Cl)n1 [Example 53, N-(1-Carbamoyl-cyclohexylmethyl)-2-chloro-5-[(2-chloro-pyrimidin-4-yl)-methyl-amino]-benzamide]
18 | 482 nM | CN(c1ccc(Cl)c(C(=O)NCC2(CO)CCCCC2)c1)c1ccnc(Cl)n1 [Example 55, 2-Chloro-5-[(2-chloro-pyrimidin-4-yl)-methyl-amino]-N-(1-hydroxymethyl-cyclohexylmethyl)-benzamide]
19 | 74 nM | CN(c1ccc(Cl)c(C(=O)NCC2(CO)CCCCC2)c1)c1ccnc(=O)[nH]1 [Example 56, 2-Chloro-N-(1-hydroxymethyl-cyclohexylmethyl)-5-[methyl-(2-oxo-2,3-dihydro-pyrimidin-4-yl)-amino]-benzamide]
20 | 214 nM | CN(c1ccc(Cl)c(C(=O)NCC2(O)CCC(F)(F)CC2)c1)c1ccnc(Cl)n1 [Example 57, 2-Chloro-5-[(2-chloro-pyrimidin-4-yl)-methyl-amino]-N-(4,4-difluoro-1-hydroxy-cyclohexylmethyl)-benzamide]
21 | 416 nM | CN(c1ccc(Cl)c(C(=O)NCC2(O)CCCCC2)c1)c1cc(Cl)nc(Cl)n1 [Example 62, 2-Chloro-5-[(2,6-dichloro-pyrimidin-4-yl)-methyl-amino]-N-(1-hydroxy-cyclohexylmethyl)-benzamide]
22 | 307 nM | COc1nc(Cl)cc(N(C)c2ccc(Cl)c(C(=O)NCC3(O)CCCCC3)c2)n1 [Example 63, 2-Chloro-5-[(6-chloro-2-methoxy-pyrimidin-4-yl)-methyl-amino]-N-(1-hydroxy-cyclohexylmethyl)-benzamide]
23 | 902 nM | CN(c1ccc(Cl)c(C(=O)NCC2(O)CCCCC2)c1)c1cc(Cl)[nH]c(=O)n1 [Example 64, 2-Chloro-5-[(6-chloro-2-oxo-1,2-dihydro-pyrimidin-4-yl)-methyl-amino]-N-(1-hydroxy-cyclohexylmethyl)-benzamide]
24 | 337 nM | COc1cc(N(C)c2ccc(Cl)c(C(=O)NCC3(O)CCCCC3)c2)ncn1 [Example 67, 2-Chloro-N-(1-hydroxy-cyclohexylmethyl)-5-[(6-methoxy-pyrimidin-4-yl)-methyl-amino]-benzamide]
25 | 322 nM | CSc1ccnc(N(C)c2ccc(Cl)c(C(=O)NCC3(O)CCCCC3)c2)n1 [Example 73, 2-Chloro-N-(1-hydroxy-cyclohexylmethyl)-5-[methyl-(4-methylsulfanyl-pyrimidin-2-yl)-amino]-benzamide]
26 | 280 nM | COc1ccnc(N(C)c2ccc(Cl)c(C(=O)NCC3(O)CCCCC3)c2)n1 [Example 74, 2-Chloro-N-(1-hydroxy-cyclohexylmethyl)-5-[(4-methoxy-pyrimidin-2-yl)-methyl-amino]-benzamide]
27 | 1020 nM | CN(c1ccc(Cl)c(C(=O)NCC2(O)CCCCC2)c1)c1nccc(=O)[nH]1 [Example 75, 2-Chloro-N-(1-hydroxy-cyclohexylmethyl)-5-[methyl-(6-oxo-1,6-dihydro-pyrimidin-2-yl)-amino]-benzamide]

— patent publication US20140073651A1, “BENZAMIDE DERIVATIVES AS P2X7 RECEPTOR ANTAGONISTS” (Actelion Pharmaceuticals Ltd., priority 2011, published 2014)
